Patent US12162840B2, “Herbicidal compositions” (SYNGENTA PARTICIPATIONS AG, priority 2018, dated 2024)

System: cool season plant species
Test: B2 Post-emergence efficacy Test 2, cool season plant species
Format: in vivo
Conditions: 15 days after application, 0=no damage, 100=total kill
Description: Seeds of a variety of test species (see Table B1) were sown in standard soil in pots. After cultivation for 12 days (post-emergence) under controlled conditions in a glasshouse (at 24/18° C. or 20/16° C., at day/night; 16 hours light; 65% humidity), the plants were sprayed with an aqueous spray solution derived from the formulation of the technical active ingredient dissolved in IF50 (see Table B2 for composition) and adjuvant (Genapol XO80) was added to the spray solution at a rate of 0.2% v/v. [table] [table] After application, the test plants were grown in a glasshouse under controlled conditions (as above) and watered twice daily. Herbicidal activity was evaluated 15 days after application on a 0-100 scale. The results, where 0=no damage to test plant and 100=total kill of test plant are shown below in Tables 6 to 9.

## Cc1nn(C)c(=O)c(-c2c(F)ccc(Cl)c2CCc2ccccc2C(F)(F)F)c1O [Compound 1.066]
15 g/Ha
  Herbicidal activity (0-100 scale) ALOMY: 20
  Herbicidal activity (0-100 scale) AVEFA: 0
  Herbicidal activity (0-100 scale) BEAVA: 80
  Herbicidal activity (0-100 scale) BROTE: 0
  Herbicidal activity (0-100 scale) BRSNN: 90
  Herbicidal activity (0-100 scale) GALAP: 20
  Herbicidal activity (0-100 scale) HORVW: 0
  Herbicidal activity (0-100 scale) KCHSC: 0
  Herbicidal activity (0-100 scale) LOLPE: 10
  Herbicidal activity (0-100 scale) POAAN: 20
  Herbicidal activity (0-100 scale) POLCO: 70
  Herbicidal activity (0-100 scale) SINAR: 60
  Herbicidal activity (0-100 scale) STEME: 80
  Herbicidal activity (0-100 scale) TRZAW: 0
  Herbicidal activity (0-100 scale) VERPE: 80
30 g/Ha
  Herbicidal activity (0-100 scale) ALOMY: 50
  Herbicidal activity (0-100 scale) AVEFA: 20
  Herbicidal activity (0-100 scale) BEAVA: 80
  Herbicidal activity (0-100 scale) BROTE: 20
  Herbicidal activity (0-100 scale) BRSNN: 90
  Herbicidal activity (0-100 scale) CHEAL: 90
  Herbicidal activity (0-100 scale) GALAP: 20
  Herbicidal activity (0-100 scale) HORVW: 10
  Herbicidal activity (0-100 scale) KCHSC: 0
  Herbicidal activity (0-100 scale) LOLPE: 20
  Herbicidal activity (0-100 scale) POAAN: 70
  Herbicidal activity (0-100 scale) POLCO: 80
  Herbicidal activity (0-100 scale) SINAR: 60
  Herbicidal activity (0-100 scale) STEME: 60
  Herbicidal activity (0-100 scale) TRZAW: 10
  Herbicidal activity (0-100 scale) VERPE: 90
60 g/Ha
  Herbicidal activity (0-100 scale) ALOMY: 70
  Herbicidal activity (0-100 scale) AVEFA: 40
  Herbicidal activity (0-100 scale) BEAVA: 80
  Herbicidal activity (0-100 scale) BROTE: 60
  Herbicidal activity (0-100 scale) BRSNN: 90
  Herbicidal activity (0-100 scale) CHEAL: 90
  Herbicidal activity (0-100 scale) GALAP: 20
  Herbicidal activity (0-100 scale) HORVW: 20
  Herbicidal activity (0-100 scale) KCHSC: 0
  Herbicidal activity (0-100 scale) LOLPE: 80
  Herbicidal activity (0-100 scale) POAAN: 80
  Herbicidal activity (0-100 scale) POLCO: 90
  Herbicidal activity (0-100 scale) SINAR: 80
  Herbicidal activity (0-100 scale) STEME: 90
  Herbicidal activity (0-100 scale) TRZAW: 40
  Herbicidal activity (0-100 scale) VERPE: 100
125 g/Ha
  Herbicidal activity (0-100 scale) ALOMY: 80
  Herbicidal activity (0-100 scale) AVEFA: 90
  Herbicidal activity (0-100 scale) BEAVA: 80
  Herbicidal activity (0-100 scale) BROTE: 70
  Herbicidal activity (0-100 scale) BRSNN: 90
  Herbicidal activity (0-100 scale) CHEAL: 90
  Herbicidal activity (0-100 scale) GALAP: 20
  Herbicidal activity (0-100 scale) HORVW: 70
  Herbicidal activity (0-100 scale) KCHSC: 10
  Herbicidal activity (0-100 scale) LOLPE: 90
  Herbicidal activity (0-100 scale) POAAN: 90
  Herbicidal activity (0-100 scale) POLCO: 90
  Herbicidal activity (0-100 scale) SINAR: 90
  Herbicidal activity (0-100 scale) STEME: 90
  Herbicidal activity (0-100 scale) TRZAW: 60
  Herbicidal activity (0-100 scale) VERPE: 100
250 g/Ha
  Herbicidal activity (0-100 scale) ALOMY: 90
  Herbicidal activity (0-100 scale) AVEFA: 90
  Herbicidal activity (0-100 scale) BEAVA: 80
  Herbicidal activity (0-100 scale) BROTE: 80
  Herbicidal activity (0-100 scale) BRSNN: 90
  Herbicidal activity (0-100 scale) CHEAL: 100
  Herbicidal activity (0-100 scale) GALAP: 30
  Herbicidal activity (0-100 scale) HORVW: 80
  Herbicidal activity (0-100 scale) KCHSC: 20
  Herbicidal activity (0-100 scale) LOLPE: 90
  Herbicidal activity (0-100 scale) POAAN: 90
  Herbicidal activity (0-100 scale) POLCO: 100
  Herbicidal activity (0-100 scale) SINAR: 90
  Herbicidal activity (0-100 scale) STEME: 90
  Herbicidal activity (0-100 scale) TRZAW: 70
  Herbicidal activity (0-100 scale) VERPE: 100
500 g/Ha
  Herbicidal activity (0-100 scale) ALOMY: 90
  Herbicidal activity (0-100 scale) AVEFA: 90
  Herbicidal activity (0-100 scale) BEAVA: 90
  Herbicidal activity (0-100 scale) BROTE: 90
  Herbicidal activity (0-100 scale) BRSNN: 90
  Herbicidal activity (0-100 scale) CHEAL: 100
  Herbicidal activity (0-100 scale) GALAP: 90
  Herbicidal activity (0-100 scale) HORVW: 90
  Herbicidal activity (0-100 scale) KCHSC: 20
  Herbicidal activity (0-100 scale) LOLPE: 100
  Herbicidal activity (0-100 scale) POAAN: 90
  Herbicidal activity (0-100 scale) POLCO: 100
  Herbicidal activity (0-100 scale) SINAR: 90
  Herbicidal activity (0-100 scale) STEME: 100
  Herbicidal activity (0-100 scale) TRZAW: 80
  Herbicidal activity (0-100 scale) VERPE: 100
